Results: ChEMBL document CHEMBL4325911, “Discovery of N-(piperidin-3-yl)-N-(pyridin-2-yl)piperidine/piperazine-1-carboxamides as small molecule inhibitors of PCSK9” (Bioorg Med Chem Lett, 2018)

Target: 80S Ribosome
Experiment: Binding affinity to 80S ribosome in human HuH7 cells harboring human PCSK9 (1 to 152 residues)-proLuc assessed as inhibition of PCSK9 mRNA translation after overnight incubation by luciferase reporter gene assay
Assay type: cell-based
Settings: huh-7

IC50 | SMILES
2.21 µM | O=C(N1CCC(c2ccccc2)CC1)N(c1ncccc1Cl)[C@@H]1CCCNC1
3.5 µM | Cc1ccc2c(N3CCN(C(=O)N(c4nccc5ccccc45)[C@@H]4CCCNC4)CC3)noc2c1
1.73 µM | O=C(N1CCC(c2ccccc2)CC1)N(c1nccc2ccccc12)[C@@H]1CCCNC1
2.05 µM | Cc1cccnc1N(C(=O)N1CCC(c2ccccc2)CC1)[C@@H]1CCCNC1

The remaining lines, values behind:

SMILES | IC50
O=C(N1CCC(c2cnn3cccnc23)CC1)N(c1ncccc1Cl)[C@@H]1CCCNC1 | > 20 µM
O=C(N1CCN(c2ccccc2)CC1)N(c1nccc2ccccc12)[C@@H]1CCCNC1 | 12.6 µM
Cc1cnc2c(c1)nnn2-c1ccc(CCC(=O)N(c2ncccc2Cl)[C@@H]2CCCNC2)nc1 | 0.85 µM

Target: 80S Ribosome
Experiment: Binding affinity to 80S ribosome in human HeLa cells lysates using human full length PCSK9 encoding mRNAs assessed as inhibition of PCSK9 mRNA translation after 45 mins by Steady-Glo luciferase reporter gene assay
Assay type: cell-free
Settings: not given

IC50 | SMILES
2.08 µM | O=C(N1CCC(c2ccccc2)CC1)N(c1ncccc1Cl)[C@@H]1CCCNC1
1.54 µM | O=C(N1CCC(c2ccccc2)CC1)N(c1nccc2ccccc12)[C@@H]1CCCNC1
0.5 µM | Cn1ccc2ccnc(N(C(=O)N3CCC(c4ccccc4)CC3)[C@@H]3CCCNC3)c21
2.33 µM | Cc1cccnc1N(C(=O)N1CCC(c2ccccc2)CC1)[C@@H]1CCCNC1

Further lines, the molecule ahead of its results:

SMILES | IC50
COc1ccc(CCC(=O)N(c2nccc3ccccc23)[C@@H]2CCCNC2)cc1 | 8.04 µM
Cc1nccnc1N(C(=O)N1CCC(c2ccccc2)CC1)[C@@H]1CCCNC1 | 3.63 µM
Cc1cccnc1N(C(=O)N1CCC(c2ccccc2F)CC1)[C@@H]1CCCNC1 | 4.38 µM
Cc1cnc2c(c1)nnn2-c1ccc(CCC(=O)N(c2ncccc2Cl)[C@@H]2CCCNC2)nc1 | 2.27 µM
Cc1cccnc1N(C(=O)N1CCC(c2cnn3cccnc23)CC1)[C@@H]1CCCNC1 | 0.92 µM

Tested on: not listed separately
Experiment: Lipophilicity, log D of the compound by shake flask method
Assay type: physicochemical
Settings: octanol/water

logD | SMILES
0.9 | O=C(N1CCC(c2ccccc2)CC1)N(c1ncccc1Cl)[C@@H]1CCCNC1
1.6 | Cc1ccc2c(N3CCN(C(=O)N(c4nccc5ccccc45)[C@@H]4CCCNC4)CC3)noc2c1
1.4 | O=C(N1CCC(c2ccccc2)CC1)N(c1nccc2ccccc12)[C@@H]1CCCNC1
1.4 | Cn1ccc2ccnc(N(C(=O)N3CCC(c4ccccc4)CC3)[C@@H]3CCCNC3)c21
0.7 | Cc1cccnc1N(C(=O)N1CCC(c2ccccc2)CC1)[C@@H]1CCCNC1

The next lines start with the molecule.

SMILES | logD
COc1ccc(CCC(=O)N(c2nccc3ccccc23)[C@@H]2CCCNC2)cc1 | 1
O=C(N1CCC(c2cnn3cccnc23)CC1)N(c1ncccc1Cl)[C@@H]1CCCNC1 | -0.5
O=C(N1CCN(c2ccccc2)CC1)N(c1nccc2ccccc12)[C@@H]1CCCNC1 | 0.8
Cc1nccnc1N(C(=O)N1CCC(c2ccccc2)CC1)[C@@H]1CCCNC1 | 0.3
Cc1cccnc1N(C(=O)N1CCC(c2ccccc2F)CC1)[C@@H]1CCCNC1 | 1
Cc1cnc2c(c1)nnn2-c1ccc(CCC(=O)N(c2ncccc2Cl)[C@@H]2CCCNC2)nc1 | 0.7
Cc1cccnc1N(C(=O)N1CCC(c2cnn3cccnc23)CC1)[C@@H]1CCCNC1 | 0.2

Tested on: not listed separately
Experiment: Intrinsic clearance in human liver microsomes
Assay type: ADME, Microsome
Settings: read-out: CLH

microsomal CLint | SMILES
< 9.3 µL/min/mg | O=C(N1CCC(c2ccccc2)CC1)N(c1ncccc1Cl)[C@@H]1CCCNC1
12.9 µL/min/mg | Cc1ccc2c(N3CCN(C(=O)N(c4nccc5ccccc45)[C@@H]4CCCNC4)CC3)noc2c1
13.9 µL/min/mg | O=C(N1CCC(c2ccccc2)CC1)N(c1nccc2ccccc12)[C@@H]1CCCNC1
11.8 µL/min/mg | Cn1ccc2ccnc(N(C(=O)N3CCC(c4ccccc4)CC3)[C@@H]3CCCNC3)c21
< 8 µL/min/mg | Cc1cccnc1N(C(=O)N1CCC(c2ccccc2)CC1)[C@@H]1CCCNC1

Second part, the molecule before the results:

SMILES | microsomal CLint
O=C(N1CCC(c2cnn3cccnc23)CC1)N(c1ncccc1Cl)[C@@H]1CCCNC1 | < 8 µL/min/mg
O=C(N1CCN(c2ccccc2)CC1)N(c1nccc2ccccc12)[C@@H]1CCCNC1 | 13.8 µL/min/mg
Cc1nccnc1N(C(=O)N1CCC(c2ccccc2)CC1)[C@@H]1CCCNC1 | < 8 µL/min/mg
Cc1cccnc1N(C(=O)N1CCC(c2ccccc2F)CC1)[C@@H]1CCCNC1 | < 8 µL/min/mg
Cc1cnc2c(c1)nnn2-c1ccc(CCC(=O)N(c2ncccc2Cl)[C@@H]2CCCNC2)nc1 | 9.3 µL/min/mg
Cc1cccnc1N(C(=O)N1CCC(c2cnn3cccnc23)CC1)[C@@H]1CCCNC1 | < 8 µL/min/mg

Tested on: Bone marrow cell
Experiment: Cytotoxicity against rat bone marrow cells assessed as reduction in cell viability after 72 hrs by celltiter glo assay
Assay type: cell-based
Settings: not given

SMILES | IC50
Cc1nccnc1N(C(=O)N1CCC(c2ccccc2)CC1)[C@@H]1CCCNC1 | > 100 µM
Cc1ccc2c(N3CCN(C(=O)N(c4nccc5ccccc45)[C@@H]4CCCNC4)CC3)noc2c1 | 31.1 µM
Cc1cccnc1N(C(=O)N1CCC(c2ccccc2F)CC1)[C@@H]1CCCNC1 | 46.2 µM
Cc1cnc2c(c1)nnn2-c1ccc(CCC(=O)N(c2ncccc2Cl)[C@@H]2CCCNC2)nc1 | 27.1 µM
O=C(N1CCC(c2ccccc2)CC1)N(c1nccc2ccccc12)[C@@H]1CCCNC1 | 12.7 µM
Cc1cccnc1N(C(=O)N1CCC(c2cnn3cccnc23)CC1)[C@@H]1CCCNC1 | 10.1 µM
Cn1ccc2ccnc(N(C(=O)N3CCC(c4ccccc4)CC3)[C@@H]3CCCNC3)c21 | 11.7 µM

Tested on: not listed separately
Experiment: Permeability in RRCK cells measured up to 1.5 hrs
Assay type: ADME, cell-based, Canis lupus familiaris, MDCKII-LE
Settings: dog, MDCK; read-out: permeability

Papp at 1.5 h | SMILES
0.3 ×10⁻⁶ cm/s | O=C(c1ccc(-c2ccccc2)cc1)N(c1nccc2ccccc12)[C@@H]1CCCNC1
12.8 ×10⁻⁶ cm/s | O=C(N1CCC(c2ccccc2)CC1)N(c1ncccc1Cl)[C@@H]1CCCNC1
8.9 ×10⁻⁶ cm/s | Cc1ccc2c(N3CCN(C(=O)N(c4nccc5ccccc45)[C@@H]4CCCNC4)CC3)noc2c1
3.9 ×10⁻⁶ cm/s | O=C(N1CCC(c2ccccc2)CC1)N(c1nccc2ccccc12)[C@@H]1CCCNC1
5.2 ×10⁻⁶ cm/s | Cn1ccc2ccnc(N(C(=O)N3CCC(c4ccccc4)CC3)[C@@H]3CCCNC3)c21
8.7 ×10⁻⁶ cm/s | Cc1cccnc1N(C(=O)N1CCC(c2ccccc2)CC1)[C@@H]1CCCNC1

The remaining lines, values behind:

SMILES | Papp at 1.5 h
O=C(N1CCC(c2cnn3cccnc23)CC1)N(c1ncccc1Cl)[C@@H]1CCCNC1 | 1.8 ×10⁻⁶ cm/s
O=C(N1CCN(c2ccccc2)CC1)N(c1nccc2ccccc12)[C@@H]1CCCNC1 | 5.8 ×10⁻⁶ cm/s
Cc1nccnc1N(C(=O)N1CCC(c2ccccc2)CC1)[C@@H]1CCCNC1 | 11.5 ×10⁻⁶ cm/s
Cc1cccnc1N(C(=O)N1CCC(c2ccccc2F)CC1)[C@@H]1CCCNC1 | 9.5 ×10⁻⁶ cm/s
Cc1cnc2c(c1)nnn2-c1ccc(CCC(=O)N(c2ncccc2Cl)[C@@H]2CCCNC2)nc1 | 6.2 ×10⁻⁶ cm/s
Cc1cccnc1N(C(=O)N1CCC(c2cnn3cccnc23)CC1)[C@@H]1CCCNC1 | 1.8 ×10⁻⁶ cm/s

Target: Voltage-gated inwardly rectifying potassium channel KCNH2 (Homo sapiens, UniProt Q12809)
Experiment: Binding affinity to human ERG by dofetilide fluorescence polarization binding assay
Settings: not given

Chain of Voltage-gated inwardly rectifying potassium channel KCNH2 (Q12809 whole entry): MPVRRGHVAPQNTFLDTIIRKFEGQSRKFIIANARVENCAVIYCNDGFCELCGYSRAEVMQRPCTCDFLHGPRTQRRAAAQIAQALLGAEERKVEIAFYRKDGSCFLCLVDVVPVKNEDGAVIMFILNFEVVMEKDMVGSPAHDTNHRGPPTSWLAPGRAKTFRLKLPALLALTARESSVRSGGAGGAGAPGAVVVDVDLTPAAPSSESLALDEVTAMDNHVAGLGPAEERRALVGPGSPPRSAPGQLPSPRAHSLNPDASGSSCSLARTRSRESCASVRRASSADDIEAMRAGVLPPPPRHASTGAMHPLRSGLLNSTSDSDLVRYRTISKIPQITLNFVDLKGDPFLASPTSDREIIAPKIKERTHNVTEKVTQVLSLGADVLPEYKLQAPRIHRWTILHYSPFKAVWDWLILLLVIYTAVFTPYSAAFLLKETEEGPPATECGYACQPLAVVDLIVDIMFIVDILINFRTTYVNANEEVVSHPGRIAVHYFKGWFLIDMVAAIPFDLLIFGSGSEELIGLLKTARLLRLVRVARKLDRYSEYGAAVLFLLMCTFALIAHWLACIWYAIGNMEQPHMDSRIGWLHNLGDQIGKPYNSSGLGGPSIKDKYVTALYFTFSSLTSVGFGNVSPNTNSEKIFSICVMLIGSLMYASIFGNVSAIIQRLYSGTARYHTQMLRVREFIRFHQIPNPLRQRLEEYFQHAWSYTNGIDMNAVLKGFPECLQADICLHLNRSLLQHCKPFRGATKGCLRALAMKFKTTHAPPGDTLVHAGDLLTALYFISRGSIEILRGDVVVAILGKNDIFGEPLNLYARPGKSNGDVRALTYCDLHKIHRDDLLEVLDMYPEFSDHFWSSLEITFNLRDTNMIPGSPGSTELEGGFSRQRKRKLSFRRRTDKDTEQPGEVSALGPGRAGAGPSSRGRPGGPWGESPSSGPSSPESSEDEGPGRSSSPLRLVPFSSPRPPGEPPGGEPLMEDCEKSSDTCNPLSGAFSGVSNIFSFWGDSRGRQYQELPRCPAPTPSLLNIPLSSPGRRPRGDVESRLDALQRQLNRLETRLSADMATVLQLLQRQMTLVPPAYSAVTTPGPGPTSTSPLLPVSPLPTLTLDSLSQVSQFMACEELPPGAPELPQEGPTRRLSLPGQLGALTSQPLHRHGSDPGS

SMILES | Ki
O=C(N1CCC(c2ccccc2)CC1)N(c1ncccc1Cl)[C@@H]1CCCNC1 | 14.3 µM
O=C(N1CCN(c2ccccc2)CC1)N(c1nccc2ccccc12)[C@@H]1CCCNC1 | 9.2 µM
Cc1nccnc1N(C(=O)N1CCC(c2ccccc2)CC1)[C@@H]1CCCNC1 | 24.8 µM
Cc1ccc2c(N3CCN(C(=O)N(c4nccc5ccccc45)[C@@H]4CCCNC4)CC3)noc2c1 | 1.2 µM
Cc1cccnc1N(C(=O)N1CCC(c2ccccc2F)CC1)[C@@H]1CCCNC1 | 9.8 µM
Cc1cnc2c(c1)nnn2-c1ccc(CCC(=O)N(c2ncccc2Cl)[C@@H]2CCCNC2)nc1 | 5.9 µM
O=C(N1CCC(c2ccccc2)CC1)N(c1nccc2ccccc12)[C@@H]1CCCNC1 | 4.1 µM
Cc1cccnc1N(C(=O)N1CCC(c2cnn3cccnc23)CC1)[C@@H]1CCCNC1 | > 40 µM
Cn1ccc2ccnc(N(C(=O)N3CCC(c4ccccc4)CC3)[C@@H]3CCCNC3)c21 | 5.7 µM
Cc1cccnc1N(C(=O)N1CCC(c2ccccc2)CC1)[C@@H]1CCCNC1 | > 25 µM
